Experimental data reported in US9079913B2, “Spiro-oxindole MDM2 antagonists” (The Regents of the University of Michigan, priority 2009, dated 2015).
Like-named read-outs stand apart in the source and are kept apart here.

Key:
[1] = tested on: Isogenic HCT-116 colon cancer cell lines; assay: cells; type: cell-based;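 note: cells grown in 96-well plates in McCoy's 5A medium with 10% FBS, exposed to compound for 4 days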
Protocol: Cells were seeded in 96-well flat bottom cell culture plates at a density of 2−3×10^3 cells/well with compounds and incubated for 4 days.

[2] = tested on: cancer cell lines with wild-type p53 / mutated or deleted p53 (ATCC); assay: Cell growth assay (WST-8), other cancer cell lines; type: cell-based
[3] = In vitro microsomal stability, rat; type: in vitro ADME
[4] = Homo sapiens, HCT-116, read-out: Inhibition of cell growth IC50, HCT116 p53 WT, Table 19B, HCT116 p53 WT
[5] = Homo sapiens, LNCaP, Table 19B, LNCaP cells, read-out: Inhibition of cell growth IC50, LNCaP
[6] = Homo sapiens, HCT-116, read-out: HCT-116 (p53-/-) IC50, Table 19A, HCT-116 p53-/-, cell growth
[7] = Homo sapiens, HCT-116, read-out: HCT-116 (p53 wild-type) IC50, Table 19A, HCT-116 p53 wild-type, cell growth
[8] = Homo sapiens, LNCaP, Table 19A, LNCAP cells, p53 wild-type, cell growth, read-out: LNCAP (p53 wild-type) IC50
[9] = Homo sapiens, PC-3, Table 19A, PC-3 cells, deleted p53, cell growth, read-out: PC-3 (deleted p53) IC50
[10] = Homo sapiens, SJSA-1, Table 19A, SJSA-1 cells, p53 wild-type, cell growth, read-out: SJSA-1 (p53 wild-type) IC50
[11] = read-out: SJSA-1 (p53 wild-type) IC50

Row | Structure (SMILES) | IC50 [1, 6] [µM] | IC50 [1, 7] [µM] | IC50 [2, 8] [µM] | IC50 [2, 9] [µM] | IC50 [2, 10] [µM] | also measured
1 | CN1[C@@H](C(=O)NCCN2CCOCC2)[C@H](c2cccc(Cl)c2F)[C@@]2(C(=O)Nc3cc(F)c(F)cc32)[C@H]1CC(C)(C)C [MI-722] | – | – | – | – | – | IC50 ([1]; Homo sapiens, HCT-116, read-out: Inhibition of cell growth IC50, HCT116 p53 KO, Table 19B, HCT116 p53 KO): > 100 µM; IC50 [1, 4]: > 100 µM; IC50 [2, 5]: > 100 µM; IC50 ([2]; Homo sapiens, PC-3, Table 19B, PC3 cells, read-out: Inhibition of cell growth IC50, PC3): > 100 µM
2 | CNCC(=O)N1CCN(C(=O)[C@@H]2N[C@H](CC(C)(C)C)[C@]3(C(=O)Nc4cc(Cl)c(F)cc43)[C@H]2c2cccc(Cl)c2)CC1 [MI-747] | 3.9 | 1.3 | 1.3 | 3.7 | – | –
3 | CC(C)(C)C[C@H]1N[C@@H](C(=O)NCC[C@H]2CC[C@@H](O)C2)[C@H](c2cccc(Cl)c2F)[C@@]12C(=O)Nc1cc(Cl)ccc12 [MI-753] | – | – | – | – | – | IC50 [1, 4]: 2.9 ± 0.1 µM; IC50 ([1]; read-out: Inhibition of cell growth IC50, HCT116 p53 KO, Table 19B, HCT116 p53 KO): 21.8 ± 4.9 µM; IC50 [2, 5]: 3.2 ± 0.3 µM; IC50 ([2]; Table 19B, PC3 cells, read-out: Inhibition of cell growth IC50, PC3): 24.7 ± 2.7 µM
4 | CC(C)(C)C[C@H]1N[C@@H](C(=O)NCCN2CCCC2)[C@H](c2cccc(Cl)c2F)[C@@]12C(=O)Nc1cc(Cl)c(F)cc12 [MI-763] | – | – | – | – | – | % of compound remaining when incubated in rat liver microsomes ([3]; Table 17, 0 min): 100%; % of compound remaining when incubated in rat liver microsomes ([3]; Table 17, 4 min): 96.8%; % of compound remaining when incubated in rat liver microsomes ([3]; Table 17, 6 min): 97.3%; % of compound remaining when incubated in rat liver microsomes ([3]; Table 17, 10 min): 85.6%; % of compound remaining when incubated in rat liver microsomes ([3]; Table 17, 15 min): 72.1%; % of compound remaining when incubated in rat liver microsomes ([3]; Table 17, 30 min): 61.5%; microsomal stability (in words) ([3]; rat liver microsomes): improved microsomal stability over MI-219
5 | CC(C)(C)C[C@H]1N[C@@H](C(=O)NCCCCN2CCCC2)[C@H](c2cccc(Cl)c2F)[C@@]12C(=O)Nc1cc(Cl)c(F)cc12 [MI-765] | 4.7 ± 2 | 1.1 ± 0.2 | 1.5 ± 0.9 | 2.6 ± 0.2 | 1.4 ± 0.1 | –
6 | CC(C)(C)C[C@H]1N[C@@H](C(=O)NCC[C@H]2CC[C@H](NS(C)(=O)=O)C2)[C@H](c2cccc(Cl)c2F)[C@@]12C(=O)Nc1cc(Cl)c(F)cc12 [MI-766] | 6.9 ± 1.4 | 0.7 | 0.9 | 5.9 ± 2.2 | 1.7 ± 1.4 | –
7 | CC(C)(C)C[C@H]1N[C@@H](C(=O)NCC[C@H]2CC[C@H](N)C2)[C@H](c2cccc(Cl)c2F)[C@@]12C(=O)Nc1cc(Cl)c(F)cc12 [MI-767] | 2.4 ± 1 | 0.7 ± 0.2 | 0.9 ± 0.2 | 2.2 ± 0.1 | 0.9 ± 0.6 | –
8 | CC(C)(C)C[C@H]1N[C@@H](C(=O)NCCCNS(C)(=O)=O)[C@H](c2cccc(Cl)c2F)[C@@]12C(=O)Nc1cc(Cl)c(F)cc12 [MI-768] | 9.8 ± 0.4 | 0.5 ± 0.2 | 0.7 ± 0.2 | 7.3 ± 0.8 | 0.8 ± 0.1 | –
9 | CC(C)(C)C[C@H]1N[C@@H](C(=O)NCCNS(C)(=O)=O)[C@H](c2cccc(Cl)c2F)[C@@]12C(=O)Nc1cc(Cl)c(F)cc12 [MI-769] | 10.2 | 1.6 | 1.5 | 13 | 0.6 | –
10 | CC(C)(C)C[C@H]1N[C@@H](C(=O)NC2CCC(O)CC2)[C@H](c2cccc(Cl)c2F)[C@@]12C(=O)Nc1cc(F)c(F)cc12 (some centres unmarked) [MI-786] | – | – | – | – | – | IC50 [2, 11]: 0.8 µM
11 | CC(C)(C)C[C@H]1N[C@@H](C(=O)NC2CCC(O)CC2)[C@H](c2cccc(Cl)c2F)[C@@]12C(=O)Nc1cc(F)c(F)cc12 (some centres unmarked) [MI-7104] | – | – | – | – | – | IC50 ([2]; read-out: LNCAP (p53 wild-type) IC50): < 3 µM; IC50 ([2]; read-out: PC-3 (deleted p53) IC50): > 10 µM; IC50 [2, 11]: < 3 µM
12 | CC(C)(C)C[C@@H]1N[C@@H](C(=O)NC2CCC(O)CC2)[C@H](c2cccc(Cl)c2F)[C@]12C(=O)Nc1cc(Cl)ccc12 (some centres unmarked) [MI-77301] | – | 0.1 | – | – | – | IC50 ([2]; Homo sapiens, LNCaP, read-out: LNCAP (p53 wild-type) IC50): 0.1 µM; IC50 ([2]; Homo sapiens, PC-3, read-out: PC-3 (deleted p53) IC50): 13 µM; IC50 ([2]; Homo sapiens, SJSA-1, read-out: SJSA-1 (p53 wild-type) IC50): 0.8 µM
13 | CC(C)(C)C[C@@H]1N[C@@H](C(=O)NC2CCC(O)CC2)[C@H](c2cccc(F)c2F)[C@]12C(=O)Nc1cc(Cl)ccc12 (some centres unmarked) [MI-710201] | – | – | – | – | – | IC50 ([1]; Homo sapiens, HCT-116, read-out: HCT-116 (p53 wild-type) IC50): 0.3 µM
